Laboratory results from US10633348B2, “Methods to treat lymphoplasmacytic lymphoma” (Dana-Farber Cancer Institute, Inc., priority 2013, dated 2020).
Where two headings read alike, the source gives them in different places.

Assays:
Format in all cases: cell-based
[1] = test system: Hck-pY410; assay: PhosFlow; conditions: BCWM.1, Hck-wt and Hck-mu BCWM.1 cells; 0.5 μM and 0.1 μM
[2] = test system: ERK5
[3] = test system: ILK
[4] = test system: MELK
[5] = test system: LATS2
[6] = test system: AurA
[7] = test system: NEK6, NEK7; assay: KiNativ kinase profiling in A375 cells; conditions: Lys2, SEQ ID NO 122, 1.0 μM
[8] = test system: NEK1
[9] = test system: PKR
[10] = test system: FES
[11] = test system: ULK3
[12] = test system: BARK1
[13] = test system: SGK3
[14] = test system: CHK1
[15] = test system: KHS1
[16] = test system: MAP2K3
[17] = test system: PIP4K2B
[18] = test system: MARK4
[19] = test system: RSK2 domain1
[20] = test system: ZAP70
[21] = test system: RSK2 domain2
[22] = test system: VRK2
[23] = test system: SLK
[24] = test system: CDK7
[25] = test system: PKN1
[26] = test system: SYK
[27] = test system: JNK1, JNK2, JNK3; assay: KiNativ kinase profiling in A375 cells; conditions: Lys2, SEQ ID NO 67, 1.0 μM
[28] = test system: DNAPK
[29] = test system: MST3
[30] = test system: GSK3A
[31] = test system: KSR1, KSR2; assay: KiNativ kinase profiling in A375 cells; conditions: Activation Loop, SEQ ID NO 70, 1.0 μM
[32] = test system: PAN3
[33] = test system: MAP2K5
[34] = test system: PIK3C2B
[35] = test system: MAP3K2, MAP3K3; assay: KiNativ kinase profiling in A375 cells; conditions: Lys2, SEQ ID NO 87, 1.0 μM
[36] = test system: EPHB1
[37] = test system: PHKG1
[38] = test system: FGR
[39] = test system: DGKA
[40] = test system: RSKL1
[41] = test system: MARK3
[42] = test system: MSK1 domain1
[43] = test system: RAF1
[44] = test system: KSR1
[45] = test system: DGKH
[46] = test system: GCN2
[47] = test system: PIP5K3
[48] = test system: LATS1
[49] = test system: PCTAIRE2, PCTAIRE3; assay: KiNativ kinase profiling in A375 cells; conditions: Lys1, SEQ ID NO 135, 1.0 μM
[50] = test system: RIPK3
[51] = test system: NEK9

Question: How did the “Hck phosphorylation” value [1] turn out when `CCN1CCN(Cc2ccc(NC(=O)c3ccc(C)c(Oc4ccnc(Nc5cnn(C)c5)n4)c3)cc2C(F)(F)F)CC1` [(A-14), N-(4-((4-ethylpiperazin-1-yl)methyl)-3-(trifluoromethyl)phenyl)-4-methyl-3-((2-((1-methyl-1H-pyrazol-4-yl)amino)pyrimidin-4-yl)oxy)benzamide] was run?
Answer: The value was “inhibit”.

Question: Which “inhibition of kinase labeling” value [2] does the source give for `CCN1CCN(Cc2ccc(NC(=O)c3ccc(C)c(Oc4cc(N)ncn4)c3)cc2C(F)(F)F)CC1` [(A-4), 3-((6-aminopyrimidin-4-yl)oxy)-N-(4-((4-ethylpiperazin-1-yl)methyl)-3-(trifluoromethyl)phenyl)-4-methylbenzamide] here?
Answer: The value was 25.9%.

Question: What about the “inhibition of kinase labeling” value [3] of the same compound?
Answer: The value was 5.2%.

Question: What about the “inhibition of kinase labeling” value [4] of the same compound?
Answer: The value was −19.6%.

Question: And the “inhibition of kinase labeling” value [5]?
Answer: The value was −1.9%.

Question: What about the “inhibition of kinase labeling” value [6] of the same compound?
Answer: Its value is −16.0%.

Question: What about the “inhibition of kinase labeling” value [7] of the same compound?
Answer: Its value is −12.5%.

Question: And the “inhibition of kinase labeling” value [8]?
Answer: Its value is −3.0%.

Question: What about the “inhibition of kinase labeling” value [9] of the same compound?
Answer: The value was −28.4%.

Question: And the “inhibition of kinase labeling” value [10]?
Answer: The value was 89.1%.

Question: What about the “inhibition of kinase labeling” value [11] of the same compound?
Answer: Its value is −4.4%.

Question: What about the “inhibition of kinase labeling” value [12] of the same compound?
Answer: The value was −13.4%.

Question: What about the “inhibition of kinase labeling” value [13] of the same compound?
Answer: Its value is −10.2%.

Question: And the “inhibition of kinase labeling” value [14]?
Answer: The value was −5.0%.

Question: What about the “inhibition of kinase labeling” value [15] of the same compound?
Answer: Its value is 15.8%.

Question: What about the “inhibition of kinase labeling” value [16] of the same compound?
Answer: The value was −1.0%.

Question: What about the “inhibition of kinase labeling” value [17] of the same compound?
Answer: The value was −44.7%.

Question: And the “inhibition of kinase labeling” value [18]?
Answer: Its value is 2.9%.

Question: What about the “inhibition of kinase labeling” value [19] of the same compound?
Answer: The value was −3.3%.

Question: What about the “inhibition of kinase labeling” value [20] of the same compound?
Answer: Its value is 49.2%.

Question: What about the “inhibition of kinase labeling” value [21] of the same compound?
Answer: Its value is −24.1%.

Question: And the “inhibition of kinase labeling” value [22]?
Answer: The value was 27.9%.

Question: And the “inhibition of kinase labeling” value [23]?
Answer: The value was −14.3%.

Question: And the “inhibition of kinase labeling” value [24]?
Answer: The value was 3.9%.

Question: What about the “inhibition of kinase labeling” value [25] of the same compound?
Answer: Its value is −32.1%.

Question: And the “inhibition of kinase labeling” value [26]?
Answer: Its value is 17.4%.

Question: What about the “inhibition of kinase labeling” value [27] of the same compound?
Answer: Its value is 77.2%.

Question: What about the “inhibition of kinase labeling” value ([28]; ATP site peptide SEQ ID NO 37) of the same compound?
Answer: Its value is −61.5%.

Question: What about the “inhibition of kinase labeling” value ([28]; ATP site peptide SEQ ID NO 38) of the same compound?
Answer: Its value is −64.6%.

Question: What about the “inhibition of kinase labeling” value [29] of the same compound?
Answer: Its value is −3.7%.

Question: And the “inhibition of kinase labeling” value [30]?
Answer: Its value is 36.0%.

Question: And the “inhibition of kinase labeling” value [31]?
Answer: Its value is −10.0%.

Question: What about the “inhibition of kinase labeling” value [32] of the same compound?
Answer: Its value is 12.1%.

Question: What about the “inhibition of kinase labeling” value [33] of the same compound?
Answer: The value was 20.5%.

Question: And the “inhibition of kinase labeling” value [34]?
Answer: Its value is 24.0%.

Question: What about the “inhibition of kinase labeling” value [35] of the same compound?
Answer: Its value is 3.2%.

Question: And the “inhibition of kinase labeling” value [36]?
Answer: The value was −1.7%.

Question: And the “inhibition of kinase labeling” value [37]?
Answer: Its value is −49.0%.

Question: What about the “inhibition of kinase labeling” value [38] of the same compound?
Answer: Its value is 31.9%.

Question: What about the “inhibition of kinase labeling” value [39] of the same compound?
Answer: The value was −4.8%.

Question: And the “inhibition of kinase labeling” value [40]?
Answer: The value was 31.5%.

Question: What about the “inhibition of kinase labeling” value [41] of the same compound?
Answer: Its value is −26.1%.

Question: What about the “inhibition of kinase labeling” value [42] of the same compound?
Answer: The value was 5.7%.

Question: What about the “inhibition of kinase labeling” value [43] of the same compound?
Answer: Its value is 36.6%.

Question: What about the “inhibition of kinase labeling” value [44] of the same compound?
Answer: Its value is −22.0%.

Question: What about the “inhibition of kinase labeling” value [45] of the same compound?
Answer: The value was −6.3%.

Question: What about the “inhibition of kinase labeling” value [46] of the same compound?
Answer: The value was 20.8%.

Question: And the “inhibition of kinase labeling” value [47]?
Answer: Its value is 0.9%.

Question: What about the “inhibition of kinase labeling” value [48] of the same compound?
Answer: The value was 5.4%.

Question: What about the “inhibition of kinase labeling” value [49] of the same compound?
Answer: Its value is 11.7%.

Question: And the “inhibition of kinase labeling” value [50]?
Answer: The value was 32.6%.

Question: And the “inhibition of kinase labeling” value [51]?
Answer: Its value is −1.2%.
